The target of the experiment is T1, αvβ3 (Homo sapiens, UniProt P05106+P06756, DEL719-788).
T1 construct: purchased R & D 3050-AV
Briefly: Human αVβ3 solid phase assay (fibrinogen binding). The following applies: αvβ3-coated plates, fibrinogen as ligand. The procedure: Buffer used was Buffer A: 20 mM Tris, 150 mM NaCl, 1 mM CaCl2, 1 mM MgCl2, pH 7.4. […] After blocking, plates were washed 5 times with 200 uL of Buffer B (Buffer A+1 mM MnCl2). […] Plates were shaken for 2 minutes, and then incubated for 2 hours for 37° C. […] After the addition of 1st antibody and after the addition of 2nd antibody, plates were shaken for 2 minutes and incubated for 60 minutes at 37° C., and then washed 5 times with 200 uL of Buffer B correspondingly. […] Plates were shaken at RT for 5-8 min, and the development of a green color was gradually showing. After being added 100 uL/well Stop Buffer (1.0 M Phosphoric Acid ([…])), plates were read on Envision at Absorbance mode 450 nm.

Molecules are shown by their SMILES. Where two headings read alike, the source gives them in different places.

T1 sequence (P06756 31-992 limits assumed, stated change not applied): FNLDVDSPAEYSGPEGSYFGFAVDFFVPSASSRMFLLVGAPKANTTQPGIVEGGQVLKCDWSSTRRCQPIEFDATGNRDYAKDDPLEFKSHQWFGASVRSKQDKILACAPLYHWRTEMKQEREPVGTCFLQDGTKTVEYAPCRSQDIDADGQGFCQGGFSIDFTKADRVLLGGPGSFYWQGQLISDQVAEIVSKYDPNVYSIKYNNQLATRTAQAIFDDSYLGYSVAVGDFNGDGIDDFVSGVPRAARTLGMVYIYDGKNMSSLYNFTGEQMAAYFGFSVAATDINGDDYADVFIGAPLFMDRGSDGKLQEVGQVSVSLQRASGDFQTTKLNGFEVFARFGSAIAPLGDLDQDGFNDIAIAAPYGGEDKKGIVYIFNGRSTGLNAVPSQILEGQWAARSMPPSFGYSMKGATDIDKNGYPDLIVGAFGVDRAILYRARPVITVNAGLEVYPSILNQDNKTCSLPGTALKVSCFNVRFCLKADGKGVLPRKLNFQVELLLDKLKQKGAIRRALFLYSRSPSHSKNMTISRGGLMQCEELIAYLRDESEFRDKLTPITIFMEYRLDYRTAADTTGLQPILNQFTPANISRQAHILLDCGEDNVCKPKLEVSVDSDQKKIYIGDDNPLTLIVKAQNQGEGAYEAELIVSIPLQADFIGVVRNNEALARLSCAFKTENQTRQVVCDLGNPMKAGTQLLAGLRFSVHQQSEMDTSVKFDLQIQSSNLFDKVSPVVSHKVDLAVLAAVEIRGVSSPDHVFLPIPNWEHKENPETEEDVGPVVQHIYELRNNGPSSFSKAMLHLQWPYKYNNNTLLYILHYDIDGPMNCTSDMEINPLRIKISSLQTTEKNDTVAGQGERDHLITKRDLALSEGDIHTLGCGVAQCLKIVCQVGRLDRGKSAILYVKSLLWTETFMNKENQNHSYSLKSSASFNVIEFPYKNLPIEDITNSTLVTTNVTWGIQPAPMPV
T1 sequence (P05106 27-718 limits assumed, stated change not applied): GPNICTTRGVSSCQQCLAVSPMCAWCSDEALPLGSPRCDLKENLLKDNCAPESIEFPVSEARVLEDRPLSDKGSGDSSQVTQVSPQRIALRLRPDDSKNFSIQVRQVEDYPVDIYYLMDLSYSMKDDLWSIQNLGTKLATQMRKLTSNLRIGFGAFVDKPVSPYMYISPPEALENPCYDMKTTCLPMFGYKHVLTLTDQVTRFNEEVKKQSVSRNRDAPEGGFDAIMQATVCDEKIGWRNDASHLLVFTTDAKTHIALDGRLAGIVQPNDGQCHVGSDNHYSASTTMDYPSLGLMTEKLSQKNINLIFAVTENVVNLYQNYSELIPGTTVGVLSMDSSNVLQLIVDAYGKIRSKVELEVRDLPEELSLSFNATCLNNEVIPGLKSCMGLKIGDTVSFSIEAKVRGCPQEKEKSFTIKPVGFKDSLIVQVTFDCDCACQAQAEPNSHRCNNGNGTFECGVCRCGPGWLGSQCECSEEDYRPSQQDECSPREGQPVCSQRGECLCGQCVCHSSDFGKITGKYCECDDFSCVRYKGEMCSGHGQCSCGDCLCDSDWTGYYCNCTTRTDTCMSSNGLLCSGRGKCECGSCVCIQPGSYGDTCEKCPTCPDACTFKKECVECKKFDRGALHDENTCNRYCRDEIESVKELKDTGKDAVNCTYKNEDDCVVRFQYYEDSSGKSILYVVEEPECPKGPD

As for `COc1ccc(NC(=O)[C@H](CC(=O)O)NC(=O)CNC(=O)c2cccc(N=C(N)N)c2)cc1` [compound 28], the 50% inhibitory concentration (IC50) (commonly the concentration at which inhibition is half-maximal) (read-out: Binding IC50) worked out at 2 nM and the IC50 (read-out: IC50 of control compound) was roughly 2 nM.
